Experimental data taken from patent US8030354B2, “Substituted biphenyl GPR40 modulators” (Amgen Inc., priority 2007, dated 2011).

Columns and labels:
GPR40 [1] = target: T1, GPR40 (Homo sapiens, UniProt O14842); assay: Inositol phosphate accumulation assay (A9_GPR40 cells); type: cell-based; set-up: expressed in transfected cells; host or cells: CHO cells stably transfected with GPR40 and aequorin; conditions: inositol phosphate assay, A9_GPR40 cells, 1 hour; read-out: IP3 EC50
Method in brief: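 [^3H] inositol phosphate accumulation was measured by SPA after 1 h compound exposure at 37° C in HBSS/10 mM LiCl containing HSA, ending with a 20 mM formic acid quench. The GPR40-transfected A9 cells had first been labelled overnight (16 h) with 1 μCi/mL ^3H-inositol.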

GPR40 [2] = target: T1, GPR40; assay: Cell-based aequorin assay (CHO cells stably expressing GPR40 and aequorin); set-up: expressed in transfected cells; host or cells: CHO cells stably transfected with GPR40 and aequorin; conditions: for EC50: activation of human GPR40, CHO cells, 0.01% HSA
Method in brief: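 CHO cells stably co-expressing GPR40 and aequorin, loaded with coelenterazine (1 ug/mL, 2 h, room temperature) in H/HBSS with 20 mM Hepes and 0.01% fatty acid-free HSA. Serially diluted compounds added; luminescence recorded over 20 s. EC50 from dose-response of maximum relative light units.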

GPR40 [3] = target: T1, GPR40; assay: Aequorin luminescence in response to compounds; type: cell-based; set-up: expressed in transfected cells; conditions: FIG. 2; as a function of concentration; compared with fatty acid ligands
Source text: FIG. 2 is a graph showing Aequorin luminescence in response to various compounds as a function of concentration.

[4] = system: fetal rat intestinal cells isolated from E19 rat embryos; assay: GLP-1 secretion into culture medium from fetal rat intestinal cells; type: cell-based; conditions: FIG. 5-7; cultured cells treated with serial dilutions of compound
Experimental: (§1) FIG. 5 is a graph showing the concentration of GLP-1 secreted into culture medium as a function of the amount of Example compounds 14 and 69.8. The GLP-1 was secreted from fetal rat intestinal cells isolated from E19 rat embryos. The cultured cells were treated with serial dilutions of the indicated compounds, and GLP-1 secreted into the culture medium was determined.
as §1, with “6” for “5”, “compound 66.6.” for “compounds 14 and 69.8.”, “compound,” for “compounds,”
as §1, with “7” for “5”, “14, 66.17, 77.3,” for “14”, “83.1.” for “69.8.”

T1 sequence (O14842 whole entry): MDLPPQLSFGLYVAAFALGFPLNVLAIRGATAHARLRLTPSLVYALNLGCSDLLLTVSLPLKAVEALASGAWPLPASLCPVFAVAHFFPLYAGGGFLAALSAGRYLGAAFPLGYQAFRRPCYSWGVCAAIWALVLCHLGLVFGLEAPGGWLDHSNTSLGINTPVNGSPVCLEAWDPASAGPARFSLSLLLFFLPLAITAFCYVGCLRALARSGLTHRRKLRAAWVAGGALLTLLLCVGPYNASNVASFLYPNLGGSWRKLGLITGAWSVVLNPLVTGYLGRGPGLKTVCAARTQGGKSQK

Structure (SMILES) | EC50 (GPR40 [1]) [nM] | EC50 (GPR40 [2]) [nM] | agonist type in aequorin assay (GPR40 [2]; compared with α-linolenic acid and docosahexaenoic acid, FIG. 2) | Aequorin luminescence (GPR40 [3]) | concentration of GLP-1 secreted into culture medium [4]
COc1ccc(F)c(-c2ccc(COc3cccc([C@@H](CC(=O)O)C4CC4)c3)cc2C2CCCC2(C)C)c1 (single isomer, unassigned) [Example 66.4, (3S)-3-Cyclopropyl-3-(3-(((2-(2,2-dimethylcyclopentyl)-2′-fluoro-5′-(methyloxy)-1,1′-biphenyl-4-yl)methyl)oxy)phenyl)propanoic acid or (3R)-3-cyclopropyl-3-(3-(((2-(2,2-dimethylcyclopentyl)-2′-fluoro-5′-(methyloxy)-1,1′-biphenyl-4-yl)methyl)oxy)phenyl)propanoic acid] | < 10 | 100 to 1000 | potent full agonists | equivalent to naturally occurring fatty acid ligands | 
COc1ccc(F)c(-c2ccc(COc3cccc(C(CC(=O)O)C4CC4)c3)cc2C2CCCC2(C)C)c1 (single isomer, unassigned) [Example 66.6] | < 10 | 10 to 100 |  |  | significantly stimulated GLP-1 secretion
COc1ccc(F)c(-c2ccc(COc3cccc([C@@H](CC(=O)O)C4CC4)c3)cc2CC(C)(C)C)c1 (single isomer, unassigned) [Example 66.17, (3S)-3-Cyclopropyl-3-(3-(((2-(2,2-dimethylpropyl)-2′-fluoro-5′-(methyloxy)-1,1′-biphenyl-4-yl)methyl)oxy)phenyl)propanoic acid or (3R)-3-cyclopropyl-3-(3-(((2-(2,2-dimethylpropyl)-2′-fluoro-5′-(methyloxy)-1,1′-biphenyl-4-yl)methyl)oxy)phenyl)propanoic acid] | < 10 | 10 to 100 |  |  | significantly stimulated GLP-1 secretion
COc1ccc(F)c(-c2ccc(COc3cccc([C@@H](CC(=O)O)CC4CC4)c3)cc2[C@H]2CCCC2(C)C)c1 (single isomer, unassigned) [Example 69.8] | < 10 | 10 to 100 |  |  | significantly stimulated GLP-1 secretion
CCC(CC(=O)O)c1cccc(OCc2ccc(-c3cc(OC)ccc3F)c(C3CCCC3(C)C)c2)c1F (single isomer, unassigned) [Example 77.3] | < 10 | 100 to 1000 |  |  | significantly stimulated GLP-1 secretion
COc1ccc(F)c(-c2ccc(COc3cccc(C(CC(=O)O)C4CC4)c3F)cc2C2CCCC2(C)C)c1 (single isomer, unassigned) [Example 83.1] | < 10 | 10 to 100 |  |  | significantly stimulated GLP-1 secretion
COc1ccc(F)c(-c2ccc(COc3cccc([C@@H](CC(=O)O)[C@@H]4C[C@H]4C)c3)cc2C2=CCCC2(C)C)c1 (single isomer, unassigned) [Example 93.2] | 10 to 100 | 100 to 1000 |  |  | 
COc1ccc(F)c(-c2ccc(COc3cccc([C@H](CC(=O)O)C4CC4)c3)cc2[C@@H]2CCCC2(C)C)c1 (single isomer, unassigned) [Example 97.3] | 10 to 100 | 100 to 1000 |  |  | 
COc1ccc(F)c(-c2ccc(COc3cccc(C(CC(=O)O)C4CC4)c3F)cc2C2CCCC2(C)C)c1 (single isomer, unassigned) [Example 99.2] | 10 to 100 | 100 to 1000 |  |  | 
CCC(C)(CC(=O)O)c1cccc(OCc2ccc(-c3cc(OC)ccc3F)c([C@@H]3CCCC3(C)C)c2)c1 (single isomer, unassigned) [Example 103, 3-(3-(((2-((1S)-2,2-Dimethylcyclopentyl)-2′-fluoro-5′-(methyloxy)-1,1′-biphenyl-4-yl)methyl)oxy)phenyl)-3-methylpentanoic acid or 3-(3-(((2-((1R)-2,2-dimethylcyclopentyl)-2′-fluoro-5′-(methyloxy)-1,1′-biphenyl-4-yl)methyl)oxy)phenyl)-3-methylpentanoic acid] | 10 to 100 | 100 to 1000 |  |  | 
COc1ccc(F)c(-c2ccc(COc3cccc(C(C)(CC(=O)O)C4CC4)c3)cc2[C@H]2CCCC2(C)C)c1 (single isomer, unassigned) [Example 104, 3-Cyclopropyl-3-(3-(((2-((1S)-2,2-dimethylcyclopentyl)-2′-fluoro-5′-(methyloxy)-1,1′-biphenyl-4-yl)methyl)oxy)phenyl)butanoic acid or 3-cyclopropyl-3-(3-(((2-((1R)-2,2-dimethylcyclopentyl)-2′-fluoro-5′-(methyloxy)-1,1′-biphenyl-4-yl)methyl)oxy)phenyl)butanoic acid] | 10 to 100 | 100 to 1000 |  |  | 
COc1ccc(F)c(-c2ccc(COc3cccc(C4(CC(=O)O)CCCCC4)c3)cc2C2CCCC2(C)C)c1 (single isomer, unassigned) [Example 105.1, (1-{3-[2-((S)-2,2-Dimethyl-cyclopentyl)-2′-fluoro-5′-methoxy-biphenyl-4-ylmethoxy]-phenyl}-cyclohexyl)-acetic acid or (1-{3-[2-((R)-2,2-dimethyl-cyclopentyl)-2′-fluoro-5′-methoxy-biphenyl-4-ylmethoxy]-phenyl}-cyclohexyl)-acetic acid] | 10 to 100 | 100 to 1000 |  |  | 
COc1ccc(F)c(-c2ccc(COc3cccc(CCC(=O)O)c3)cc2C(C)(C)C)c1 [Example 34, 3-(3-(((2-(1,1-Dimethylethyl)-2′-fluoro-5′-(methyloxy)-1,1′-biphenyl-4-yl)methyl)oxy)phenyl)propanoic acid] | 100 to 1000 | 100 to 1000 |  |  | 
COc1cccc(-c2ccc(COc3cccc(CCC(=O)O)c3)cc2OC(F)(F)F)c1 [Example 37, 3-[3-(3′-Methoxy-2-trifluoromethoxy-biphenyl-4-ylmethoxy)-phenyl]-propionic acid] | > 1000 | 100 to 1000 |  |  | 
COc1ccc(F)c(-c2ccc(COc3cccc(CCC(=O)O)c3)cc2OC(F)(F)F)c1 [Example 38, 3-[3-(2′-Fluoro-5′-methoxy-2-trifluoromethoxy-biphenyl-4-ylmethoxy)-phenyl]-propionic acid] | 1000 to 10000 | 100 to 1000 |  |  | 
COc1ccc(F)c(-c2ccc(COc3cccc(CCC(=O)O)c3)cc2C2=CCCC2)c1 [Example 39, 3-[3-(2-Cyclopent-1-enyl-2′-fluoro-5′-methoxy-biphenyl-4-ylmethoxy)-phenyl]-propionic acid] | 100 to 1000 | 1000 to 10000 |  |  | 
COc1cccc(-c2ccc(COc3cccc(C(CC(=O)O)C4CC4)c3)cc2C2CCCC2(C)C)c1 (stereo not shown) [Example 66.8] | < 10 | 10 to 100 |  |  | 
COc1ccc(F)c(-c2ccc(COc3cc(CCC(=O)O)ccn3)cc2C(C)(C)C)c1 [Example 72, 3-(2-(((2-(1,1-Dimethylethyl)-2′-fluoro-5′-(methyloxy)-1,1′-biphenyl-4-yl)methyl)oxy)-4-pyridinyl)propanoic acid] | 1000 to 10000 | 100 to 1000 |  |  | 
COc1ccc(F)c(-c2ccc(COc3cccc(C(C)(C)CC(=O)O)c3)cc2C(C)(C)C)c1 [Example 85.1, 3-[3-(2-tert-Butyl-2′-fluoro-5′-methoxy-biphenyl-4-ylmethoxy)-phenyl]-3-methyl-butyric acid] | 100 to 1000 | 100 to 1000 |  |  | 
COc1ccc(F)c(-c2ccc(COc3cccc(C(C)(C)CC(=O)O)c3)cc2C2=CCCC2(C)C)c1 [Example 85.2, 3-{3-[2-(5,5-Dimethyl-cyclopent-1-enyl)-2′-fluoro-5′-methoxy-biphenyl-4-ylmethoxy]-phenyl}-3-methyl-butyric acid] | 10 to 100 | 100 to 1000 |  |  | 
COc1ccc(F)c(-c2ccc(COc3cc(CCC(=O)O)ccn3)cc2C2=CCCC2(C)C)c1 [Example 95, 3-(2-(((2-(5,5-Dimethyl-1-cyclopenten-1-yl)-2′-fluoro-5′-(methyloxy)-1,1′-biphenyl-4-yl)methyl)oxy)-4-pyridinyl)propanoic acid] | 100 to 1000 | 100 to 1000 |  |  | 
